Values quoted from earlier work in patent publication US10702482B2, “Slow-release solid oral compositions” (GNOSIS SPA, priority 2013, dated 2020).

Structure (SMILES): C[S+](CC[C@H](N)C(=O)O)C[C@H]1O[C@@H](n2cnc3c(N)ncnc32)[C@H](O)[C@@H]1O (stereo partly drawn) [SAMe, S-adenosyl-L-methionine]
- oral bioavailability (in words): rather poor oral bioavailability
